Here are results for one molecule from publication PMC3006138, “Fexinidazole – A New Oral Nitroimidazole Drug Candidate Entering Clinical Development for the Treatment of Sleeping Sickness” (PLoS Neglected Tropical Diseases, 2010).

This series can be described thus: Excretion balance. Type of series: in vivo, rat. The settings on record: for excreted percent of dose, faeces / excreted percent of dose, urine: 800 mg/kg po; for radioactivity eliminated: within 48 h. How it is done: Excretion balance in rats was carried out using a single oral dose of radiolabelled fexinidazole administered at the dose of 800 mg/kg (approximately 3.7 MBq/kg, 100 µCi/kg) by gastric gavage to three male albino Sprague Dawley rats. […]
This study was conducted according to Protocol N° 0162-2008 and to Amendment 1. A copy of the experimental protocol is included in Appendix 1; a copy of the amendment is included […]
FEXINIDAZOLE is a 5-nitroimidazole derivative biologically active against Trypanosoma parasites (T.b. rhodesiense and T.b. brucei) and useful in the treatment of the Human African Trypanosomiasis (HAT), known as sleeping sickness. FEXINIDAZOLE is a compound currently under development by the Sponsor.
The objective of this study was to obtain information on the elimination of radioactive drug-related material in urine and faeces following oral administration of [14C]-FEXINIDAZOLE (800 mg/kg) to male Sprague Dawley rats.
The albino Sprague Dawley rat was chosen as the species for this study since it was one of the species used in the toxicological evaluation of the test compound.
Only male animals were used as no gender differences were expected with respect to the aim of the study. The oral route of administration was chosen as this is the intended therapeutic route. The dose level was selected in agreement with the Study Sponsor and it is within the pharmacological relevant range. No overt toxicity was expected after single dosing at this […]
The study was conducted on 3 male animals after single oral administration of [14C]- FEXINIDAZOLE (800 mg/kg, approximately 3.7 MBq/kg, 100 µCi/kg).
Urine and faeces were collected up to 96 hours after administration. The radioactivity levels of drug-related material were determined in each collected sample by Liquid Scintillation […]
A summary of the experimental design is reported below:
Animal no. Date of Dosing Administered Dose Samples collected and (oral administration) analyzed
100 µCi/kg washes, carcass and skin […]
The test formulations were prepared by suspending unlabelled FEXINIDAZOLE and [14C]- FEXINIDAZOLE (see section 5.1) in 5% Tween 80 and 0.5% Methyl cellulose 400 cP (Methocel) in water, in order to obtain [14C]-FEXINIDAZOLE at the final target concentration of 80 mg/mL corresponding to a radioactivity concentration of about 370 […]
The test formulation was prepared by suspending an appropriate amount of unlabelled FEXINIDAZOLE in the dose vehicle. This formulation was homogenised using a Potter-Elvehjem homogenizer apparatus (teflon pestle of approx. 30 mm x 53 mm and glass tube of 40 mL), in order to obtain a fine suspension by up-and-down strokes, gently made by hand. The formulation was then collected and transferred from the homogeniser glass tube to the glass pot containing the [14C]-FEXINIDAZOLE.
During the preparation the test formulation was protected from light as far as possible.
The radioactivity concentration and homogeneity of the test formulation were determined, before administration, by liquid scintillation counting of triplicate weighed aliquots of test formulation. The radiolabelled test formulation was used immediately after formulation.
6.7.1. Administered Doses
The dose of [14C]-FEXINIDAZOLE was orally administered by gastric gavage at the target dose level of 800 mg/kg (radioactivity dose of about 3.7 MBq/kg, 100 µCi/kg) and at a target dose volume of about 10 mL/kg.
Individual doses were prepared for each animal by weighing the appropriate amount of the test formulation in an appropriate syringe for oral administration. The amount of dose administered to each animal was determined by weighing the filled syringe before the treatment and the empty syringe after dose administration. The actual dose received by each animal was calculated using the weight of the administered formulation, the radioactivity concentration and the final specific activity of the test material.
The actual doses received by each animal are documented in Table 1. […]

Setting [1] is: 0-96 h, listed as [14C]-FEXINIDAZOLE

Structures are written as SMILES.

As to `CSc1ccc(OCc2ncc([N+](=O)[O-])n2C)cc1` [Fexinidazole, 1-methyl-2-((p-(methylthio)phenoxy)methyl)-5-nitroimidazole], the radioactivity eliminated worked out at 84%. Further, where the note is “0-96 h”, the “overall recovery of total radioactivity” value is “approximately 93%”; the “percent of dose, cage washing” value is reported as 2.73%; the “radioactivity recovered in all the excreta (including cage washes)” value was “Approximately 91.4%”; the “excreted percent of dose, faeces” value worked out at 59%. Besides, the “excreted percent of dose, urine” value (0-96 h) is 30%. Under setting [1], the “overall recovery of total radioactivity” value was found to be 92.87%; the “excreted percent of dose, faeces” value amounted to 58.77%; the “excreted percent of dose, urine” value is given as 29.92%. Further, where the note is “96 h”, the “dose recovered from the carcass (and skin)” value is on record as “About 1.4%”; the “percent of dose, carcass” value is 1.01%; the “percent of dose, skin” value was found to be 0.43%. Further, under “listed as [14C]-FEXINIDAZOLE”, the radioactivity eliminated result was “about 84.3%”.
